Measurements published in patent US20250268938A1, “SMALL MOLECULE-REGULATED CELL SIGNALING EXPRESSION SYSTEM” (Outpace Bio, Inc., priority 2021, published 2025).

How the values were obtained:
Format in all cases: cell-based
[1] = system: Jurkat CD3ζ-signaling reporter line; assay: Drug-induced cell death (loss of EGFP transduction marker) in Jurkat CD3ζ-signaling reporter line
Procedure: (§1) For IncuCyte analysis of CD3ζ-signaling tdTomato reporter line with CARs and DNCR2-casp-9 kill switch (with EGFP transduction maker), 5e4 CAR+ cells were plated per well in poly-D-Lys coated plate in which 5e4 Jeko1 cells were previously seeded. Drug (e.g., grazoprevir, danoprevir) was added to given final concentration and cells were imaged for tdTomato and EGFP signal at 20×, 800 msec exposure, 4 images/well, every 3 hours. Cells were removed from the Incucyte plate to a v-bottom plate for 2 washes in PBS at 48 hours when the drug condition was changed.
(§2) Coculture for flow analysis of the CAR/kill switch constructs was setup 24 hours before analysis. CAR-positive cells (le5 cells; part I and part II positive, i.e., ROR1+ and EGFRt+ (part II marker)) were mixed with le5 Jeko1 cells and drug. Cells were analyzed for ROR1, EGFRt ([…]), tdTomato, EGFP, and viability as described hereinbelow.
Percent killing was calculated by gating on live cells, then calculating 100*((percent GFP positive DMSO condition)−(percent GFP positive drug condition))/(percent GFP positive DMSO condition).
(§3) To evaluate the use of two drug inputs to control two different signaling outputs, we used a Jurkat cell CD3ζ-signaling reporter line expressing the red fluorescent protein tdTomato to track CAR signaling, and the loss of the transduction marker (EGFP) of the DNCR2-caspase-9 construct to track Jurkat cell death.
(§4) We tested the ability to switch between CAR signaling and induction of apoptosis over time in an IncuCyte assay. Briefly, the CD3ζ-signaling reporter line expressing the dual-function GNCR1-CAR/DNCR2-casp9 was mixed 1:1 with Jeko1 cells and treated with 500 nM grazoprevir or danoprevir, or DMSO. Over a period of 48 hours, CAR signaling was tracked by tdTomato intensity and drug-induced cell death (i.e., activation of the safety switch) was monitored by tracking the transduction marker EGFP intensity.
(§5) We then tested the ability to switch from induction of CAR signaling with grazoprevir to induction of apoptosis with danoprevir. Briefly, CAR signaling was activated by grazoprevir treatment at time zero. After 48 hours, the cells were washed and treated with danoprevir. CAR signaling (tdTomato intensity) and cell viability (EGFP intensity) were tracked over an additional 72-hour period.

[2] = system: Jurkat CD3ζ-signaling reporter line; assay: CAR signaling (tdTomato) in Jurkat CD3ζ-signaling reporter line; conditions: for CAR signaling, tdTomato intensity, drug switch: grazoprevir at time zero, washed and danoprevir at 48 hours, tracked additional 72 hours
Procedure: as §1, §2, §3, §4, §5

Jurkat cells = assay: Kill switch percent killing in Jurkat cells (flow cytometry); conditions: for percent killing, miniaturized DNCR2 designs fused to caspase-9 with homo-oligomerized NS3a scaffolds: 500 nM danoprevir, co-expressed with CAR-NS3a, CAR-NS3a-NS3a or dimer-NS3a
Procedure: Kill switch-positive cells (le5) were incubated for 24-48 hours with inducer drug before staining and analysis for death. Conditions were normalized to contain about 50% transduction positive (+) cells by adding untransduced Jurkat or primary T cells in order to get accurate statistics on death.
Flow cytometry was performed on a Ze5 cytometer (Biorad). To determine expression of markers, between 1×10^5-2×10^5 total cells were transferred to a U-bottom 96 well culture dish (Corning). Cells were washed twice with Cell Staining Buffer (BioLegend), then stained with Zombie Violet (1:1000, BioLegend) and ROR1-FC for ROR1-specific CAR constructs (20 min at room temperature). Cells were washed twice in Cell Staining Buffer, then stained with Annexin V-PE (BD) in 1× Annexin V Binding Buffer (BD) for 15 min at room temperature. After staining, cells were washed once with Annexin V Binding Buffer, resuspended in AnneinV Binding Buffer and immediately analyzed.
Flow cytometry data was analyzed using FlowJo 10 (Tree Star). Percent killing was calculated by gating on live cells, then calculating 100*((percent GFP positive DMSO condition)−(percent GFP positive drug condition))/(percent GFP positive DMSO condition).
We first tested for drug-induced death of Jurkat cells by fusing NS3a and DNCR2 separately to the catalytic domain of caspase-9 (NCDC). The small molecule inducible homodimer FKBP-F36V (iCasp9), which is dimerized by AP1903 (rimiducid) and the inducible heterodimer FKBP/rapamycin/FRB dimer (rapaCasp9) were used as controls. Briefly, Jurkat cells expressing NCDC, iCasp9, or rapaCasp9 were exposed to danoprevir, rimiducid or rapamycin, respectively, for 24 hours and analyzed by flow cytometry with gating set to measure killing in the top about 10% of cells expressing the highest amount of the GFP kill switch transduction marker.
To evaluate the kill switch designs of FIG. 8A, constructs were expressed in Jurkat cells, treated with 500 nM danoprevir (DNCR2-casp-9) or 500 nM grazoprevir (GNCR1-casp-9) and cell death measured by percent killing as described herein above.
The miniaturized versions of DNCR2, D1 and D9, were fused to caspase-9 and co-expressed in Jurkat cells with homo-oligomerized NS3a scaffolds. We also evaluated a CAR construct that included an additional copy of NS3a (CAR-2×NS3a). The original DNCR2-casp-9 was used as a control. Jurkat cells expressing different DNCR2 variants fused to caspase-9 along with CAR-NS3a, CAR-NS3a-NS3a, or dimer-NS3a were treated with 500 nM danoprevir and cell death was measured by percent killing as described herein above.
We explored the ability of other human killing domains to induce cell death in Jurkat and primary human T cells. We fused FKBP-F36V to a panel of killing domains that included caspase-9 D330A, caspase-9, caspase-1, caspase-4, and the necroptosis-inducing protein RIPK3. Briefly, Jurkat and primary human CD4+/CD8+ T cells expressing FKBP(F36V)-fused killing domains were treated with 10 nM rimiducid and cell death was measured by percent killing as described herein above.

[3] = IncuCyte, over 48 hours, GNCR1-CAR/DNCR2-casp9 cells 1:1 with Jeko1, 500 nM drug

Molecule	effect on Jurkat cells expressing a conventional CAR with DNCR2-casp-9 ([1]; 500 nM drug)	CAR signaling, tdTomato intensity, drug switch [2]	percent killing, miniaturized DNCR2 designs fused to caspase-9 with homo-oligomerized NS3a scaffolds (Jurkat cells)	other results
CC(C)(C)OC(=O)N[C@H]1CCCCC/C=C\[C@@H]2C[C@@]2(C(=O)NS(=O)(=O)C2CC2)NC(=O)[C@@H]2C[C@@H](OC(=O)N3Cc4cccc(F)c4C3)CN2C1=O [danoprevir, (2R,6S,12Z,13aS,14aR,16aS)-14a-[(Cyclopropylsulfonyl)carbamoyl]-6-({[(2-methyl-2-propanyl)oxy]carbonyl}amino)-5,16-dioxo-1,2,3,5,6,7,8,9,10,11,13a,14,14a,15,16,16a-hexadecahydrocyclopropa[e]pyrrolo[1,2-a][1,4]diazacyclopentadecin-2-yl 4-fluoro-1,3-dihydro-2H-isoindole-2-carboxylate]	no effect	declines		percent killing (safety-switch) ([1]; GNCR1-CAR/DNCR2-casp-9 system, 500 nM drug, loss of EGFP-positive population relative to DMSO): triggered; cell viability, EGFP intensity [1, 3]: decreased cell viability; cell viability, EGFP signal, drug switch ([1]; danoprevir added at 48 hours, with or without previous grazoprevir treatment): began to drop; percent killing, two-chain direct dimerization design NCDC (Jurkat cells; NS3a-casp-9/DNCR2-casp-9 (NCDC), drug titration, 24 hours, top about 10% GFP-expressing Jurkat cells): modest killing
C=C[C@@H]1C[C@]1(NC(=O)[C@@H]1C[C@@H]2CN1C(=O)[C@H](C(C)(C)C)NC(=O)O[C@@H]1C[C@H]1CCCCCc1nc3ccc(OC)cc3nc1O2)C(=O)NS(=O)(=O)C1CC1.O [grazoprevir]	no effect	increases		CAR signaling, tdTomato intensity [2, 3]: only activated; CAR signaling, tdTomato gMFI ([2]; dual-function GNCR1-CAR/DNCR2-casp-9, 500 nM drug, flow cytometry): activated
D1: minimized version of DNCR2 fused to caspase-9 (protein) MDDNEAEKLIREAEEAAKDAEEAAERTGDPEVRELARELVRLAKEAAEEVQRNPSSSDVNEALHSIVYAIEAAIFALEAAERTGDPEVRELARELVRLAVEAAEEVQRNPSSRNVEHALMRIVLAIYLAEENLRESGSASGSGGFGDVGALESLRGNADLAYILSMEPCGHCLIINNVNFCRESGLRTRTGSNIDCEKLRRRFSSLHFMVEVKGDLTAKKMVLALLELAQQDHGALDCCVVVILSHGCQASHLQFPGAVYGTDGCPVSVEKIVNIFNGTSCPSLGGKPKLFFIQACGGEQKDHGFEVASTSPEDESPGSNPEPDATPFQEGLRTFDQLAAISSLPTPSDIFVSYSTFPGFVSWRDPKSGSWYVETLDDIFEQWAHSEDLQSLLLRVANAVSVKGIYKQMPGCFNFLRKKLFFKTS			comparable Jurkat death as the original DNCR2-casp-9	
D9: minimized version of DNCR2 fused to caspase-9 (protein) MELEEVLKDLEEALERLRNEELRRLIEEIAELLRRRDDHSIIYMIEALIFVIEAVERTGDERIEKLLEELIKRIRNGDDDSAIMRIVLAVYLIEENLRESGSASGSGGFGDVGALESLRGNADLAYILSMEPCGHCLIINNVNFCRESGLRTRTGSNIDCEKLRRRFSSLHFMVEVKGDLTAKKMVLALLELAQQDHGALDCCVVVILSHGCQASHLQFPGAVYGTDGCPVSVEKIVNIFNGTSCPSLGGKPKLFFIQACGGEQKDHGFEVASTSPEDESPGSNPEPDATPFQEGLRTFDQLAAISSLPTPSDIFVSYSTFPGFVSWRDPKSGSWYVETLDDIFEQWAHSEDLQSLLLRVANAVSVKGIYKQMPGCFNFLRKKLFFKTS			comparable Jurkat death as the original DNCR2-casp-9	
CAR-2×NS3a: CAR construct that included an additional copy of NS3a (protein) CPPCPMFWVLVVVGGVLACYSLLVTVAFIIFWVKRGRKKLLYIFKQPFMRPVQTTQEEDGCSCRFPEEEEGGCELASGSASGSASMKKKGSVVIVGRINLSGDTAYSQQTRGLEGCQETSQTGRDKNQVEGEVQVVSTATQSFLATSINGVLWTVYHGAGTRTIASPKGPVTQMYTNVDKDLVGWQAPQGSRSLTPCTCGSSDLYLVTRHADVIPVRRRGDSRGSLLSPRPISYLKGSAGGPLLCPAGHAVGIFRAAVSTRGVAKAVDFIPVESLETTMRSPGSSGSSGSSGGKKKGSVVIVGRINLSGDTAYSQQTRGLEGCQETSQTGRDKNQVEGEVQVVSTATQSFLATSINGVLWTVYHGAGTRTIASPKGPVTQMYTNVDKDLVGWQAPQGSRSLTPCTCGSSDLYLVTRHADVIPVRRRGDSRGSLLSPRPISYLKGSAGGPLLCPAGHAVGIFRAAVSTRGVAKAVDFIPVESLETTMRSP			increased killing further	
